Like-named read-outs stand apart in the source and are kept apart here.
Legend:
[1] = system: colorectal mucosa (epithelial tissue of the human colon reconstructed in 3D); conditions: for recovery %: human
Protocol: The trial was conducted according to the OCSE TG 428-EU approved method used for percutaneous penetration.
Like in the first trial, the test was conducted at 37° C. and relative humidity >90%.
Like in the first phase, the test was conducted at 37° C. and relative humidity >90%.

[2] = rectal treatment; cited from earlier work

SMILES | recovery Total [1] | recovery % ([1]; 48 h, 200 mg/mL) | adverse effects [2] | recovery % ([1]; 24 h, 5 mg/mL)
CCC(=O)OCC(=O)[C@@]1(OC(=O)CC)[C@@H](C)C[C@H]2[C@@H]3CCC4=CC(=O)C=C[C@]4(C)[C@@]3(Cl)[C@@H](O)C[C@@]21C [BDP D, beclomethasone dipropionate] | 1339.30 | 22% | – | –
CCC(=O)OCC(=O)[C@@]1(OC(=O)CC)[C@@H](C)C[C@H]2[C@@H]3CCC4=CC(=O)C=C[C@]4(C)[C@@]3(Cl)[C@@H](O)C[C@@]21C [BDP, beclomethasone dipropionate] | – | – | almost without the adverse effects typical of steroids | –
CCC(=O)OCC(=O)[C@@]1(OC(=O)CC)[C@@H](C)C[C@H]2[C@@H]3CCC4=CC(=O)C=C[C@]4(C)[C@@]3(Cl)[C@@H](O)C[C@@]21C [BDP C, beclomethasone dipropionate] | 112.53 | – | – | 75%
CCC(=O)OCC(=O)[C@@]1(OC(=O)CC)[C@@H](C)C[C@H]2[C@@H]3CCC4=CC(=O)C=C[C@]4(C)[C@@]3(Cl)[C@@H](O)C[C@@]21C [BDP B, beclomethasone dipropionate] | 133.53 | – | – | 89%
CCC(=O)OCC(=O)[C@@]1(OC(=O)CC)[C@@H](C)C[C@H]2[C@@H]3CCC4=CC(=O)C=C[C@]4(C)[C@@]3(Cl)[C@@H](O)C[C@@]21C [BDP A, beclomethasone dipropionate] | 149.81 | – | – | 200%

Reference: patent publication US20210268004A1, “COMPOSITION CONTAINING BECLOMETHASONE FOR THE PREVENTION AND THE TREATMENT OF BACTERIAL PROSTATITIS AND VAGINITIS” (SOFAR S.P.A., priority 2018, published 2021)
